# Results as given in article PMC4942781, “A sodium channel inhibitor ISTX-I with a novel structure provides a new hint at the evolutionary link between two toxin folds” (Scientific Reports, 2016).
# “Also recorded” adds a separate entry of the source. Bridge positions count the residues as written; N and C are the ends. Ends that are not written are not given here.
# Legend:
# [1] = tested on: hNav1.3; experiment: Whole-cell patch clamp, hNav1.3 in HEK293T cells; format: cell-based, human; details: 10 μM ISTX-I; 50 ms step to -10 mV from -80 mV
# Procedure: (§1) HEK293T (human embryonic kidney) cells were grown in DMEM containing 10% heat-inactivated FBS at 37 °C in a 5% CO2 incubator. The cDNA genes encoding human (h)Nav1.1, (h)Nav1.2, (h)Nav1.3, (h)Nav1.4, (h)Nav1.5, (h)Nav1.6 and (h)Nav1.7 were transiently transfected into HEK293T cells for electrophysiology using Lipofectamine-2000 (Invitrogen) in serum-reduced medium (Opti-MEM, Invitrogen) following the manufacturer’s instructions. The auxiliary subunits hβ1 and enhanced green florescent protein plasmids were cotransfected into HEK293T cells to increase the current density and efficiently select cells with green florescent protein for whole-cell patch-clamp recordings. After 12 h, the HEK293T cells were used for electrophysiological analysis.
# (§2) DRG neurons with a large diameter (>[…]) and those with a relatively small diameter (<[…]) were chosen by measuring TTX-s and TTX-r currents, respectively. […] Potassium, calcium, and sodium currents were recorded in experimental cells using whole-cell patch-clamp recordings at room temperature, which were performed with an HEK EPC10 patch-clamp amplifier. […] Experimental data were acquired and analyzed using the programs patch master and Sigmaplot 9.0 (Sigma, USA). […]
# (§3) Currents were recorded from experimental cells using whole-cell patch clamptechnique at room temperature (22–25 °C). […]
# [2] = tested on: hNav1.4; experiment: Whole-cell patch clamp, hNav1.4 in HEK293T cells; format: cell-based, human; details: 10 μM ISTX-I; 50 ms step to -10 mV from -80 mV
# Procedure: as §1, §2, §3
# [3] = tested on: hNav1.5; experiment: Whole-cell patch clamp, hNav1.5 in HEK293T cells; format: cell-based, human; details: 10 μM ISTX-I; 50 ms step to -10 mV from -80 mV
# Procedure: as §1, §2, §3
# [4] = tested on: hNav1.2; experiment: Whole-cell patch clamp, hNav1.2 in HEK293T cells; format: cell-based, human; details: 10 μM ISTX-I; 50 ms step to -10 mV from -80 mV
# Procedure: as §1, §2, §3
# [5] = tested on: calcium channel; experiment: Whole-cell patch clamp, Cav currents in DRG neurons; format: cell-based, rat; details: 20 μM ISTX-I, 150 ms step depolarization to +10 mV from −90 mV, Ba2+ as charge carrier
# Procedure: Rat DRG cells were acutely dissociated from adult Sprague-Dawley rats[30]. Briefly, adult rats of either sex with body weights of approximately 200 g were killed by decapitation. The dorsal root ganglia were isolated quickly from the spinal cord and then transferred into Dulbecco’s modified Eagle’s medium (DMEM) containing trypsin I (0.15 mg/mL) and collagenase II (0.3 mg/mL) for incubation with an oscillation frequency of 200 rpm at 37 °C for 20 min. The trypsin inhibitor II-S (1 mg/mL) was added to terminate the reaction. […]
# as §2, §3
# 25, MgCl2 12, HEPES 10, and D-glucose 10 (pH 7.2). Calcium channel currents were measured using Ba2+ as the charge carrier. […]
# [6] = tested on: hNav1.6; experiment: Whole-cell patch clamp, hNav1.6 in HEK293T cells; format: cell-based, human; details: 10 μM ISTX-I; 50 ms step to -10 mV from -80 mV
# Procedure: as §1, §2, §3
sequence,measurement,setting,value
"LCSENGDCAADECCVDTVFEGDMVTRSCEKTTGNFTECPGLTPIA (disulfide 2-14, 8-28, 13-38) [ISTX-I]",effect on hNav1.3,[1],no effect
same,effect on hNav1.4,[2],no effect
same,effect on hNav1.5,[3],no effect
same,effect on hNav1.2,[4],no effect
same,effect on calcium channels,[5],no obvious effects; also recorded: No effects were detected
same,inhibition of Nav1.6 currents,[6],10%
